Species on record: Rattus norvegicus
Assay: DrugMatrix - Regimen: Daily Repeat
Type: toxicity, organism-based, Sprague-Dawley
Set-up: regimen Daily Repeat, gender Male, age 6-8 weeks
Conditions: in vivo, vehicle 100 % SALINE; for SODIUM / TOTAL BILIRUBIN / TOTAL PROTEIN / URIC ACID / ALANINE AMINOTRANSFERASE / ALBUMIN / ALKALINE PHOSPHATASE / ASPARTATE AMINOTRANSFERASE / BLOOD UREA NITROGEN / CARBON DIOXIDE / CHLORIDE / CHOLESTEROL / CREATINE PHOSPHOKINASE / CREATININE / GLUCOSE / LACTATE DEHYDROGENASE / LIPASE / PHOSPHORUS / POTASSIUM: tissue Plasma; for ABSOLUTE BASOPHIL / ABSOLUTE EOSINOPHIL / ABSOLUTE LYMPHOCYTE / ABSOLUTE MONOCYTE / ABSOLUTE SEGMENTED NEUTROPHIL / BASOPHIL / EOSINOPHIL / ERYTHROCYTE COUNT / HEMATOCRIT / HEMOGLOBIN / LEUKOCYTE COUNT / LYMPHOCYTE / MEAN CORPUSCULAR HEMOGLOBIN / MEAN CORPUSCULAR HEMOGLOBIN CONCENTRATION / MEAN CORPUSCULAR VOLUME / MONOCYTE / NEUTROPHIL / NUCLEATED RED BLOOD CELLS / PLATELET COUNT: tissue Blood
[1] = ip, 40 mg/kg, […], route intraperitoneal, dose level High, time 28 day
[2] = iv, 41 mg/kg, 72 h, dose level High, time 3 day
[3] = iv, 41 mg/kg, 120 h, dose level High, time 5 day
[4] = iv, […], 72 h, dose 4.1 mg/Kg, dose level Low, time 3 day
[5] = iv, […], 120 h, dose 4.1 mg/Kg, dose level Low, time 5 day

Q: What does the source list for `CCN[C@@H]1C[C@H](N)[C@@H](O[C@H]2OC(CN)=CC[C@H]2N)[C@H](O)[C@H]1O[C@H]1OC[C@](C)(O)[C@H](NC)[C@H]1O` [NETILMICIN]?
A: SODIUM [1]: 152.1 MEQ/L; TOTAL BILIRUBIN [1]: 0.18 mg/dL; TOTAL PROTEIN [1]: 6.45 G/DL; URIC ACID [1]: 1.03 mg/dL; ABSOLUTE BASOPHIL [2]: 0 CELLS/uL; ABSOLUTE EOSINOPHIL [2]: 0 CELLS/uL; ABSOLUTE LYMPHOCYTE [2]: 13244.67 CELLS/uL; ABSOLUTE MONOCYTE [2]: 92.33 CELLS/uL; ABSOLUTE SEGMENTED NEUTROPHIL [2]: 896.33 CELLS/uL; BASOPHIL [2]: 0%; EOSINOPHIL [2]: 0%; ERYTHROCYTE COUNT [2]: 5.54 x10E6/uL; HEMATOCRIT [2]: 34.4%; HEMOGLOBIN [2]: 13.9 G/DL; LEUKOCYTE COUNT [2]: 14.23 x10E3/uL; LYMPHOCYTE [2]: 93%; MEAN CORPUSCULAR HEMOGLOBIN [2]: 25.07 pg; MEAN CORPUSCULAR HEMOGLOBIN CONCENTRATION [2]: 40.4 G/DL; MEAN CORPUSCULAR VOLUME [2]: 62.1 fL; MONOCYTE [2]: 0.67%; NEUTROPHIL [2]: 6.33%; NUCLEATED RED BLOOD CELLS [2]: 0 /100WBC; PLATELET COUNT [2]: 1289.67 x10E3/uL; ALANINE AMINOTRANSFERASE [2]: 47 u/L; ALBUMIN [2]: 4.27 G/DL; ALKALINE PHOSPHATASE [2]: 408.33 u/L; ASPARTATE AMINOTRANSFERASE [2]: 78.67 u/L; BLOOD UREA NITROGEN [2]: 16.33 mg/dL; CARBON DIOXIDE [2]: 32 mmol/L; CHLORIDE [2]: 102.67 MEQ/L; CHOLESTEROL [2]: 64.33 mg/dL; CREATINE PHOSPHOKINASE [2]: 176 u/L; CREATININE [2]: 0.16 mg/dL; GLUCOSE [2]: 156.33 mg/dL; LACTATE DEHYDROGENASE [2]: 111.67 u/L; LIPASE [2]: 9.33 u/L; PHOSPHORUS [2]: 12.53 mg/dL; POTASSIUM [2]: 7.26 MEQ/L; SODIUM [2]: 144.53 MEQ/L; TOTAL BILIRUBIN [2]: 0.23 mg/dL; TOTAL PROTEIN [2]: 5.97 G/DL; URIC ACID [2]: 1.77 mg/dL; ABSOLUTE BASOPHIL [3]: 0 CELLS/uL; ABSOLUTE EOSINOPHIL [3]: 0 CELLS/uL; ABSOLUTE LYMPHOCYTE [3]: 14425.67 CELLS/uL; ABSOLUTE MONOCYTE [3]: 210.67 CELLS/uL; ABSOLUTE SEGMENTED NEUTROPHIL [3]: 463.67 CELLS/uL; BASOPHIL [3]: 0%; EOSINOPHIL [3]: 0%; ERYTHROCYTE COUNT [3]: 5.76 x10E6/uL; HEMATOCRIT [3]: 36.3%; HEMOGLOBIN [3]: 14.47 G/DL; LEUKOCYTE COUNT [3]: 15.1 x10E3/uL; LYMPHOCYTE [3]: 95.67%; MEAN CORPUSCULAR HEMOGLOBIN [3]: 25.1 pg; MEAN CORPUSCULAR HEMOGLOBIN CONCENTRATION [3]: 39.87 G/DL; MEAN CORPUSCULAR VOLUME [3]: 62.97 fL; MONOCYTE [3]: 1.33%; NEUTROPHIL [3]: 3%; NUCLEATED RED BLOOD CELLS [3]: 0.33 /100WBC; PLATELET COUNT [3]: 1375.67 x10E3/uL; ALANINE AMINOTRANSFERASE [3]: 52 u/L; ALBUMIN [3]: 4.33 G/DL; ALKALINE PHOSPHATASE [3]: 313.33 u/L; ASPARTATE AMINOTRANSFERASE [3]: 87.67 u/L; BLOOD UREA NITROGEN [3]: 18.33 mg/dL; CARBON DIOXIDE [3]: 35 mmol/L; CHLORIDE [3]: 100.33 MEQ/L; CHOLESTEROL [3]: 60.67 mg/dL; CREATINE PHOSPHOKINASE [3]: 309.33 u/L; CREATININE [3]: 0.19 mg/dL; GLUCOSE [3]: 145.33 mg/dL; LACTATE DEHYDROGENASE [3]: 281 u/L; LIPASE [3]: 10.33 u/L; PHOSPHORUS [3]: 11.93 mg/dL; POTASSIUM [3]: 7.18 MEQ/L; SODIUM [3]: 145.03 MEQ/L; TOTAL BILIRUBIN [3]: 0.17 mg/dL; TOTAL PROTEIN [3]: 6.23 G/DL; URIC ACID [3]: 1.8 mg/dL; ABSOLUTE BASOPHIL [4]: 0 CELLS/uL; ABSOLUTE EOSINOPHIL [4]: 0 CELLS/uL; ABSOLUTE LYMPHOCYTE [4]: 4768 CELLS/uL; ABSOLUTE MONOCYTE [4]: 54 CELLS/uL; ABSOLUTE SEGMENTED NEUTROPHIL [4]: 578 CELLS/uL; BASOPHIL [4]: 0%; EOSINOPHIL [4]: 0%; ERYTHROCYTE COUNT [4]: 5.02 x10E6/uL; HEMATOCRIT [4]: 31.53%; HEMOGLOBIN [4]: 12.37 G/DL; LEUKOCYTE COUNT [4]: 5.4 x10E3/uL; LYMPHOCYTE [4]: 88.33%; MEAN CORPUSCULAR HEMOGLOBIN [4]: 24.67 pg; MEAN CORPUSCULAR HEMOGLOBIN CONCENTRATION [4]: 39.23 G/DL; MEAN CORPUSCULAR VOLUME [4]: 62.83 fL; MONOCYTE [4]: 1%; NEUTROPHIL [4]: 10.67%; NUCLEATED RED BLOOD CELLS [4]: 0.33 /100WBC; PLATELET COUNT [4]: 1171 x10E3/uL; ALANINE AMINOTRANSFERASE [4]: 52.33 u/L; ALBUMIN [4]: 4.23 G/DL; ALKALINE PHOSPHATASE [4]: 370.33 u/L; ASPARTATE AMINOTRANSFERASE [4]: 91.67 u/L; BLOOD UREA NITROGEN [4]: 16 mg/dL; CARBON DIOXIDE [4]: 33.67 mmol/L; CHLORIDE [4]: 99.33 MEQ/L; CHOLESTEROL [4]: 62 mg/dL; CREATINE PHOSPHOKINASE [4]: 447.67 u/L; CREATININE [4]: 0.17 mg/dL; GLUCOSE [4]: 154 mg/dL; LACTATE DEHYDROGENASE [4]: 115.33 u/L; LIPASE [4]: 9.33 u/L; PHOSPHORUS [4]: 10.83 mg/dL; POTASSIUM [4]: 6.02 MEQ/L; SODIUM [4]: 143.23 MEQ/L; TOTAL BILIRUBIN [4]: 0.23 mg/dL; TOTAL PROTEIN [4]: 6.03 G/DL; URIC ACID [4]: 0.8 mg/dL; ABSOLUTE BASOPHIL [5]: 0 CELLS/uL; ABSOLUTE EOSINOPHIL [5]: 0 CELLS/uL; ABSOLUTE LYMPHOCYTE [5]: 13577.67 CELLS/uL; ABSOLUTE MONOCYTE [5]: 137 CELLS/uL; ABSOLUTE SEGMENTED NEUTROPHIL [5]: 1018.67 CELLS/uL; BASOPHIL [5]: 0%; EOSINOPHIL [5]: 0%; ERYTHROCYTE COUNT [5]: 5.81 x10E6/uL; HEMATOCRIT [5]: 36.13%; HEMOGLOBIN [5]: 14.33 G/DL; LEUKOCYTE COUNT [5]: 14.73 x10E3/uL; LYMPHOCYTE [5]: 92%; MEAN CORPUSCULAR HEMOGLOBIN [5]: 24.7 pg; MEAN CORPUSCULAR HEMOGLOBIN CONCENTRATION [5]: 39.7 G/DL; MEAN CORPUSCULAR VOLUME [5]: 62.17 fL; MONOCYTE [5]: 1%; NEUTROPHIL [5]: 7%; NUCLEATED RED BLOOD CELLS [5]: 0 /100WBC; PLATELET COUNT [5]: 1276.33 x10E3/uL; ALANINE AMINOTRANSFERASE [5]: 46.33 u/L; ALBUMIN [5]: 4.3 G/DL; ALKALINE PHOSPHATASE [5]: 383.33 u/L; ASPARTATE AMINOTRANSFERASE [5]: 80.67 u/L; BLOOD UREA NITROGEN [5]: 16 mg/dL; CARBON DIOXIDE [5]: 31.67 mmol/L; CHLORIDE [5]: 101.33 MEQ/L; CHOLESTEROL [5]: 83.33 mg/dL; CREATINE PHOSPHOKINASE [5]: 216.67 u/L; CREATININE [5]: 0.17 mg/dL; GLUCOSE [5]: 166.33 mg/dL; LACTATE DEHYDROGENASE [5]: 180 u/L; LIPASE [5]: 9.33 u/L; PHOSPHORUS [5]: 13.33 mg/dL; POTASSIUM [5]: 7.09 MEQ/L; SODIUM [5]: 145.07 MEQ/L; TOTAL BILIRUBIN [5]: 0.13 mg/dL; TOTAL PROTEIN [5]: 6.3 G/DL; URIC ACID [5]: 1.93 mg/dL
